{"source": "patent US6689349B1", "about": "“Skin protection agents containing a fragment mixture produced from hyaluronic acid by hydrolysis” (esparma GmbH, priority 1998, dated 2004)", "key": {"[1]": {"experiment": "lucigenin-reinforced xanthine oxidase test (radical binding, chemiluminescence)", "assay_type": "biochemical", "details": "cell-free system", "method": "The property of binding reducing radicals, is measured in cell-free systems with a lucigenin-reinforced xanthine oxidase test on the basis of the conversion of hypoxanthine to uric acid. The O2-radicals produced in this process can be detected with lucigenin by relative chemiluminescence measurement. By the radical scavengers present, the O2-radicals are neutralised and the chemiluminescence yield reduced. […] An amount of 1 mg of the hyaluronic acid fragment according to the invention with a relative molar mass of 100 to 160 kD has a radical-binding activity which corresponds to that of 200 to 400 μg allopurinol. Hyaluronic acid with a relative molar mass of 1,800 kD has, on the other hand, a negligible radical-binding activity (Pierce, L. A., W. O. Tarnow-Mordi and I. A, Cree: Antibiotics Effects on Phagocyte Chemilunieszence in Vitro. In J. Clin. Lab. Res.- (1995) 25, 93-98)."}, "HaCaT keratinocytes": {"system": "HaCaT keratinocytes", "experiment": "toxicity test: DNA synthesis performance by BrdU incorporation", "assay_type": "cell-based, human", "details": "24-hour incubation", "method": "In order to characterise the influence of hyaluronic acid fragments of differing relative molar mass on the proliferation behaviour of human keratinocytes (HaCaT keratinocytes—made available by Prof. Dr. Norbert E. Fusenig: Deutsches Krebsforschungsinstitut Heidelberg, Germany), the DNA synthesis performance is determined with the aid of BrdU incorporation (Cell Proliferation ELISA, BrdU calorimetric—Boehringer Mannheim, Mannheim, Germany) into the DNA after a 24-hour period of incubation. For the following hyaluronic acid fragments examined, no toxic reaction of the cells could be observed."}}}
{"substance": "hyaluronic acid", "values": [{"measurement": "radical-binding activity", "setting": "[1]", "value": "negligible"}, {"measurement": "toxic reaction of the cells / tolerance (DNA synthesis performance, BrdU incorporation)", "setting": "HaCaT keratinocytes", "value": "very good tolerance"}]}
